# Laboratory results from patent US10105305B2, “Compositions and methods for promoting skin regeneration and hair growth” (THE JOHNS HOPKINS UNIVERSITY, priority 2014, dated 2018).
# Entries after “also recorded” stand apart in the source; their conditions may differ.
# Key:
# murine skin wounds = assay: Wound induced hair neogenesis (WIHN), regenerated hair follicles counted by CSLM; format: in vivo, mouse
# Procedure: Wound Induced Hair Neogenesis (WIHN). All animal protocols are approved by the Johns Hopkins University Animal Care and Use Committee. C57BL/6J, B6; 129SF2/J and TLR3 null mice (B6; 129S1-Tlr3tm1Flv/J) were obtained from The Jackson Laboratory. Mixed strain (C57BL/6J×FVB/N×SJL/J) animals were provided by Dr. Jean Richa (University of Pennsylvania).
# A 1 cm2 excisional full-thickness wounds to the level of skeletal muscle on the backs of 21-day old male and female mice was performed as previously described (Ito et al., 2007; Nelson et al., 2013). Numbers of regenerated hair follicles were quantified in the re-epithelialized skin by non-invasive confocal scanning laser microscopy (CSLM) as published (Fan et al., 2011). For all experiments, […] of “intervention” was injected into healing wound (under scab) or applied topically into open wound as shown in Table 1 below.
# Treatments during WIHN assay. Recombinant mouse IL-6 protein (R&D Systems, Minneapolis, Minn.) and poly(I:C) (High Molecular Weight; InVivogen, San Diego, Calif.) was diluted in sterile PBS immediately prior to injection. Cucurbitacin I (Tocris Biosciences/R&D Systems, Minneapolis Minn.) was dissolved in 10% EtOH/PBS to a final concentration of 1 mg/mL prior to injection. RNase III enzyme (Life Technologies, Grand Island N.Y.) was diluted in supplied reaction buffer
# [1] = system: neo-natal human epidermal keratinocytes (NHEK); assay: qRT-PCR gene expression in cultured keratinocytes (NHEK); format: cell-based
# Procedure: Cell Culture. Neo-natal human epidermal keratinocytes (Lonza, Walkersville, Md.) or lab-isolated foreskin keratinocytes were cultured in keratinocyte medium with added supplements (KGMGOLD). Treatment with recombinant IL-6 protein (50 ng/mL), cucurbitacin I (10-100 nM), poly (I:C) (20 μg/mL) and TLR3 pharmacological inhibitor (80 μM; EMD Millipore, Billerica, Mass.) was applied in basal medium containing transferrin, hydrocortisone and antibiotics for up to 24 hours. After 24 hours, treatment medium was replaced with KGM-GOLD and isolation of RNA as indicated.
# Nucleofection. Nucleofection with siGENOME SMARTpoo1 Human Tap63, TLR3, REL-A and siCONTROL siRNA duplex oligonucleotides (Dharmacon-ThermoFischer Scientific) was performed in NHEK using the Amaxa 4D-Nucleofector according to manufacturer's instruction. Plated cells were treated with recombinant human IL-6 (50 ng/mL) protein or poly(I:C) (20 μg/mL) for 24 hours. Afterwards, treatment medium was removed and replaced with KGMGOLD complete medium for the duration of the experiment. Levels of appropriate gene expression were assessed by qRT-PCR using inventoried TaqMan reagents in three independent experiments.
# Quantitative Real-Time PCR (qRT-PCR). Mouse skin was harvested prior to wounding and throughout wounding as described (Nelson et al., 2013). RNA was isolated from NHEK with RNeasy Mini Kit (Qiagen, Valencia, Calif.) with DNase I digestion. qRT-PCR was performed for genes of interest and 18S or ribosomal protein, large PO (RPLP0) (housekeeping genes) using inventoried TaqMan reagents. Differences in gene expression were assessed by comparative ΔΔCT values with fold change calculations.
# P-STAT3, TAp63, ΔNp63 = assay: Western blot of wound tissue in wt mice (P-STAT3, TAp63, ΔNp63); format: in vivo, mouse
# Procedure: FIG. 2: IL-6 and pSTAT3 mediate TLR3 effects on WIHN. A) Mean fold change in IL-6 mRNA in healed scars at WD20-24 in HR vs. LR strains of mice as determined by qRT-PCR and normalized to housekeeping gene β-actin. B) Mean fold change in IL-6 mRNA after poly (I:C) addition (20 μg/mL) to NHEK for 6 hours or in strain matched wt and TLR3 KO mice 6 hours after wounding as determined by qRT-PCR and normalized to housekeeping gene RPLP0 (NHEK) or β-actin (mouse). C) Time course of IL-6 mRNA and protein expression throughout early stage wound healing in wt mice, as determined by qRT-PCR and ELISA, respectively. D) IL-6 (middle panels) and P-STAT3 (right panels; arrows) immunohistochemistry of healing scars at WD5 and WD8 in wt mice. Scale bar=50 μm. E) Cross-section histology of healed scar at WD22 after a single injection of IL-6 (25 ng) or PBS control at WD7. Regenerated hair follicles are marked with arrows. Scale bar=100 μm. F) Regenerated hair shafts (white, arrows) at ˜WD58-62 as visualized by dissecting microscope. G) WIHN in wt mice after single dose of rmIL-6 (25 ng) compared to PBS control as measured by CSLM. H) WIHN levels in wt mice after cucurbitacin I (2 mg/kg) or control as measured by CSLM. I) P-STAT 3 levels in the presence of cucurbitacin I (+) compared to control (−) in wt mice as measured by western blot and normalized to STAT3. PC=P-STAT3 positive control cell lysate. *p<0.05 by Student's T-test or Single Factor ANOVA.
# FIG. 4: dsRNA and IL-6 induce keratinocyte stem cell genes. A) Mean fold change in TAp63 mRNA after IL-6 protein (50 ng/mL)+/−cucurbitacin I in NHEK as determined by qRT-PCR and normalized to housekeeping gene, RPLP0. B) TAp63 protein levels after IL-6 (25 ng) compared to PBS control in wt mice measured by western blot; normalized to β-actin. C) TAp63 and ΔNp63 protein levels after cucurbitacin I (2 mg/kg) compared to PBS control in wt mice measured by western blot; normalized to β-actin. D) Mean fold change in KRT1 mRNA with TAp63-specific or scrambled control siRNA in the presence of IL-6 (50 ng/mL) in NHEK as determined by qRT-PCR and normalized to housekeeping gene, RPLP0. E) Mean fold change in CBX4 mRNA after poly (I:C) (20 μg/mL) addition to NHEK for 24 hours as determined by qRT-PCR and normalized as in 4D. F) Mean fold change in CBX4 mRNA after IL-6 (50 ng/mL)+/−cucurbitacin I in NHEK for 24 hours as determined by qRT-PCR and normalized as in 4D. G) Mean fold change in KRT15 mRNA 72 hours after 24 hours of poly (I:C) (20 μg/mL) treatment to NHEK as determined by qRT-PCR and normalized as in 4D. H) Flow cytometry analysis of KRT15 protein expression 72 hours after 24 hours of poly (I:C) (20 μg/mL) or control to NHEK. *p<0.05 by Student's T-test or Single Factor ANOVA.
# [2] = system: normal nonwounded murine skin; assay: Hair cycle in non-wounded murine skin after injection during telogen; format: in vivo; settings: poly (I:C) 200 ng/mouse injected during telogen
# NHEK [3] = assay: Flow cytometry of KRT15 and vimentin in keratinocytes; format: cell-based, human
# Text: Flow Cytometry. Keratinocytes and fibroblasts were fixed, permeabilized (BD Cytofix/Cytoperm kit), and stained with antibodies against human vimentin (BD Pharmingen clone RV202) and KRT15 (Abam clone LHK15) labeled with a chromophore preconjugated to Fab (Zenon mouse IgG labeling kit). Data was collected on a dual-laser flow cytometer (BD FACSCalibur) followed by FlowJo 10 (TreeStar) software analysis.
# NHEK [4] = assay: Immunocytochemistry: keratinocyte morphology and beta-catenin nuclear localization; format: cell-based, human; settings: 72 hours after 24 hours of poly (I:C) 20 μg/mL
# Procedure: […] Fixed cells were incubated with primary antibodies overnight, appropriate Alexa Fluor secondary antibodies and counterstained using VectaShield DAPI mounting medium (Vector Labs, Burlingame, Calif.). Slides were imaged at 60× magnification using the Nikon C1si True Spectral Imaging Confocal Laser Scanning Microscope system (Cell Imaging Core Facility, Sidney Kimmel Comprehensive Cancer Center, Johns Hopkins, Baltimore, Md.). Cell morphology and beta-catenin nuclear localization were quantified using the CellProfiler image analysis software (www.cellprofiler.org) (Carpenter et al., 2006) from confocal images of nuclei.
# [5] = system: β-catenin and GLI2 promoters; assay: ChIP-qPCR of STAT3 occupancy at promoters in keratinocytes; format: cell-based, human; settings: poly (I:C) treated keratinocytes, N=5, p<0.05
# Procedure: Chromatin Immunoprecipitation. Poly(I:C) treated and control keratinocytes were crosslinked in 1% formaldehyde for 10 minutes, followed by addition of glycine for 5 minutes to quench unreacted formaldehyde. Cells were processed with EZ-ChIP Kit (Millipore) according to the manufacturer's instructions. Crosslinked protein-DNA complexes were captured with rabbit anti-Stat3 or normal rabbit IgG (sc-482X; sc-2027X, SCBT) antibodies. Real-time quantitative PCR was performed to determine the relative abundance of the promoter DNA sequence, associated with Stat3. Primers are detailed in Expanded Experimental Methods. Primers and graphics were designed based on ENCODE data (UCSC Genome Browser).
# ChIP. The amplicon for Gli2 promoter site 4 encompasses TTCCAGGAA (SEQ ID NO:2) on chr2: 121621123-121621782 in the Encode database. It was amplified with the primer sequences: a) forward: 5 […]3′ (SEQ ID NO:3); b) reverse: 5′TCCTGTTCACATTGACGCC3′ (SEQ ID NO:4). The amplicon for β-catenin promoter site 4 encompasses TTCCTGGAA (SEQ ID NO:5) on chr3: 41264037-41264357 in the Encode database. This was amplified with the primer sequences: a) forward: 5′[…]3′ (SEQ ID NO:6); b) reverse: 5′[…]3′ (SEQ ID NO:7).
# healed murine wounds = assay: Histology and immunohistochemistry of healed mouse scars (epidermal thickness, cleaved caspase 3, Ki-67); format: in vivo
# Procedure: Immunohistochemistry, Immunocytochemistry and Histology. Immunohistochemistry was performed on formalin-fixed paraffin-embedded mouse skin samples using the avidin-biotin complex method and AEC development (Vector Laboratories). Indicated antibodies were applied overnight. Sections were counterstained with hematoxylin. Images were captured at 40× magnification using a Nikon Optiphot microscope and Nikon Elements F software. Histology was assessed by H&E after IL-6 addition. The epidermal thickness from the basal layer keratinocytes to beginning of stratum corneum in three locations per healed mouse wound in multiple histology sections was measured by Image J software.
# [6] = IL-6 50 ng/mL + cucurbitacin I, NHEK, 24 hours
# [7] = cucurbitacin I 2 mg/kg vs PBS, western blot
# [8] = 72 hours after 24 hours of poly (I:C) 20 μg/mL, NHEK
# [9] = poly (I:C) 20 μg/mL treatment, NHEK
# [10] = poly (I:C) 20 μg/mL, NHEK, 24 hours
molecule,measurement,setting,value
CC(C)(O)/C=C/C(=O)[C@](C)(O)[C@H]1[C@H](O)C[C@@]2(C)[C@@H]3CC=C4[C@@H](C=C(O)C(=O)C4(C)C)[C@]3(C)C(=O)C[C@]12C [cucurbitacin I],decrease in the number of regenerated follicles,"murine skin wounds; wt C57BL/6J mice, cucurbitacin I 2 mg/kg injected at WD7, CSLM ~WD20-24",greater than 3 fold
same,effect on IL-6-induced TAp63 mRNA increase,"[1]; IL-6 50 ng/mL + cucurbitacin I, NHEK",reversed
same,effect on IL-6-induced KRT1 decrease,[1]; [6],reversed
same,effect on induced CBX4 increase,[1]; [6],reversed
same,ANp63 protein,"P-STAT3, TAp63, ΔNp63; [7]",corresponding increase
same,TAp63 protein,"P-STAT3, TAp63, ΔNp63; [7]",decrease
same,STAT3 phosphorylation,"P-STAT3, TAp63, ΔNp63; cucurbitacin I 2 mg/kg, western blot normalized to STAT3",strongly suppressed
Polyinosinic:polycytidylic acid [poly (I:C)],stimulatory effect on WIHN in TLR3 null mice,"murine skin wounds; TLR3 KO mice, poly (I:C) 200 ng vs PBS, CSLM",abrogated
same,number of regenerated follicles (WIHN),"murine skin wounds; wt mice, single poly (I:C) 200 ng injected into wound at WD3 vs PBS, CSLM ~WD20-24",greater number of regenerated follicles
same,effect on hair cycle (anagen activation) in nonwounded skin,[2],does not affect the hair cycle; also recorded: no activation of anagen
same,KRT15 mRNA expression,[1]; [8],significantly increased
same,vimentin (VIM) mRNA expression,"[1]; following poly (I:C) 20 μg/mL for 24 hours, indicated time points, NHEK",continued to increase in a time-dependent fashion
same,EDAR expression,[1]; [9],increased
same,GLI1 expression,[1]; [9],increased
same,LEF1 expression,[1]; [9],up-regulated
same,SHH expression,[1]; [9],increased
same,induction of IL-6 mRNA,"[1]; poly (I:C) 20 μg/mL, NHEK, 6 hours",greater than 30 fold
same,CBX4 expression,[1]; [10],increase
same,KRT1 expression,[1]; [10],nearly complete loss
same,filaggrin (FLG) expression,[1]; [10],nearly complete loss
same,E-cadherin epithelial marker,"[1]; same conditions as vimentin, poly (I:C) treated NHEK",not reduced
same,percentage of KRT15 expressing cells by FACS,NHEK [3]; [8],nearly doubled
same,vimentin protein expression by flow cytometry,NHEK [3]; poly (I:C) treated NHEK vs control keratinocytes and fibroblasts,intermediate between that of control keratinocytes and fibroblasts
same,amount of nuclear β-catenin,NHEK [4],doubled
same,keratinocyte length-width ratio,NHEK [4],near doubling
same,keratinocyte morphology,NHEK [4],"long, spindle-like morphology"
same,STAT3 occupation of GLI2 promoter,[5],significant increase
same,STAT3 occupation of β-catenin promoter,[5],significant increase
"IL-6: recombinant mouse IL-6 protein in mice; recombinant human IL-6 in NHEK (protein, UniProt P08505 25-211, looked up) Interleukin-6: FPTSQVRRGDFTEDTTPNRPVYTTSQVGGLITHVLWEIVEMRKELCNGNSDCMNNDDALAENNLKLPEIQRNDGCYQTGYNQEICLLKISSGLLEYHSYLEYMKNNLKDNKKDKARVLQRDTETLIHIFNQEVKDLHKIVLPTPISNALLTDKLESQKEWLRTKTIQFILKSLEEFLKVTLRSTRQT",increase in the number of regenerated follicles vs vehicle,"murine skin wounds; wt C57BL/6J mice, single rmIL-6 25 ng injected at WD7, CSLM ~WD20-24",~3 fold
same,TAp63 mRNA,"[1]; IL-6 50 ng/mL, NHEK",modest increase
same,CBX4 expression,"[1]; IL-6 50 ng/mL, NHEK, 24 hours",increase
same,Keratin 1 (KRT1) differentiation marker expression,"[1]; IL-6 50 ng/mL, NHEK, 24 hours",profound decrease
same,"apoptosis or proliferation (cleaved caspase 3, Ki-67)",healed murine wounds; healed murine wounds after rmIL-6 treatment,no alterations
same,reduction in epidermal thickness vs controls,"healed murine wounds; healed scars, IL-6 25 ng at WD7 vs PBS",2 fold
same,increase in the amount of TAp63 protein,"P-STAT3, TAp63, ΔNp63; IL-6 25 ng vs PBS, western blot normalized to β-actin",2.5 fold
